The results in this text go back to ChEMBL document CHEMBL1158668, “Novel bioactivities of Curcuma longa constituents” (1998).

Calls of active or inactive are those of the source. The calls are words filed in the database; no cut-off is given here.

Experiment [1] has as its target T1, DNA topoisomerase 2 (Saccharomyces cerevisiae S288c) (UniProt P06786).
T1 sequence (whole entry): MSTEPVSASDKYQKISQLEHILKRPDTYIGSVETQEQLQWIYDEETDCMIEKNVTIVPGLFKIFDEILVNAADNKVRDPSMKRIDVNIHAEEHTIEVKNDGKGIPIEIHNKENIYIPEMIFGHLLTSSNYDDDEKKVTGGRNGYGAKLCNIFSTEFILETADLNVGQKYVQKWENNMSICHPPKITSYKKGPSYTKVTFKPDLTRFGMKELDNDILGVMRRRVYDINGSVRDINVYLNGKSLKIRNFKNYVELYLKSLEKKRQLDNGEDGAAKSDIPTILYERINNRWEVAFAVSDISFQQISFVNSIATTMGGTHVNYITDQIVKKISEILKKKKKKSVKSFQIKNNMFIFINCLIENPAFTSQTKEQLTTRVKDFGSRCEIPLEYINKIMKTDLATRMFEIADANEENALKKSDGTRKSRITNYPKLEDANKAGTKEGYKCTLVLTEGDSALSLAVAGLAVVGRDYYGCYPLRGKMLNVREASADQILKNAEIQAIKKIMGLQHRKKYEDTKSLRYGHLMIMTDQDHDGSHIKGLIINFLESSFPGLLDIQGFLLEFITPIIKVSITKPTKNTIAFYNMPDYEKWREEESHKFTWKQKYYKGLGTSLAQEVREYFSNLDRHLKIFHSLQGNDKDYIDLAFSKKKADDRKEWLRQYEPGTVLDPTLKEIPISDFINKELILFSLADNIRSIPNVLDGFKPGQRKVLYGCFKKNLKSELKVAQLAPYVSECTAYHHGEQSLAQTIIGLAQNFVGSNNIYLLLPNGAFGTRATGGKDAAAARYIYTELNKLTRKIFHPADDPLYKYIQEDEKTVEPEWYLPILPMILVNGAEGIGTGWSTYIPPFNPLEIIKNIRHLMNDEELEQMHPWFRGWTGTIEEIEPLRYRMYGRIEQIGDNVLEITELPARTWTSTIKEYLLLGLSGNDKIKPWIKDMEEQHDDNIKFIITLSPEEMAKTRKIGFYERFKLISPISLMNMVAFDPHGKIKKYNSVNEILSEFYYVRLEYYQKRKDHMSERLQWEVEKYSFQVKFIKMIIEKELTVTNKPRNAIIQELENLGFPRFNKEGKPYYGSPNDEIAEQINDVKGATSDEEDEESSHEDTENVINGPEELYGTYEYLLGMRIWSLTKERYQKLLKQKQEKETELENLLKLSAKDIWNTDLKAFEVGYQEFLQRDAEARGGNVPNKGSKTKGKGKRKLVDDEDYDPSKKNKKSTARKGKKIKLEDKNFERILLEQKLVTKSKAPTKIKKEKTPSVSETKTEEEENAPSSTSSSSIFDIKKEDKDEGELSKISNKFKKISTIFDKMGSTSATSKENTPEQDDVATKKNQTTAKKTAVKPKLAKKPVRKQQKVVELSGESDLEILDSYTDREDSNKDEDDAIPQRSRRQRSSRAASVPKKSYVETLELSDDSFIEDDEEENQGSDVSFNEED
Briefly: Inhibition of topoisomerase 2 in Saccharomyces cerevisiae JN394t2-5 assessed as inhibition of growth at 50 ug/mL after 72 hrs.

Experiment [2] concerns the target T1, DNA topoisomerase 2 (Saccharomyces cerevisiae S288c). Briefly: Inhibition of topoisomerase 2 in Saccharomyces cerevisiae JN394 assessed as inhibition of growth at 50 ug/mL after 72 hrs.
In experiment [3] the target is T2, DNA topoisomerase 1 (Saccharomyces cerevisiae S288c) (UniProt P04786).
T2 sequence (whole entry): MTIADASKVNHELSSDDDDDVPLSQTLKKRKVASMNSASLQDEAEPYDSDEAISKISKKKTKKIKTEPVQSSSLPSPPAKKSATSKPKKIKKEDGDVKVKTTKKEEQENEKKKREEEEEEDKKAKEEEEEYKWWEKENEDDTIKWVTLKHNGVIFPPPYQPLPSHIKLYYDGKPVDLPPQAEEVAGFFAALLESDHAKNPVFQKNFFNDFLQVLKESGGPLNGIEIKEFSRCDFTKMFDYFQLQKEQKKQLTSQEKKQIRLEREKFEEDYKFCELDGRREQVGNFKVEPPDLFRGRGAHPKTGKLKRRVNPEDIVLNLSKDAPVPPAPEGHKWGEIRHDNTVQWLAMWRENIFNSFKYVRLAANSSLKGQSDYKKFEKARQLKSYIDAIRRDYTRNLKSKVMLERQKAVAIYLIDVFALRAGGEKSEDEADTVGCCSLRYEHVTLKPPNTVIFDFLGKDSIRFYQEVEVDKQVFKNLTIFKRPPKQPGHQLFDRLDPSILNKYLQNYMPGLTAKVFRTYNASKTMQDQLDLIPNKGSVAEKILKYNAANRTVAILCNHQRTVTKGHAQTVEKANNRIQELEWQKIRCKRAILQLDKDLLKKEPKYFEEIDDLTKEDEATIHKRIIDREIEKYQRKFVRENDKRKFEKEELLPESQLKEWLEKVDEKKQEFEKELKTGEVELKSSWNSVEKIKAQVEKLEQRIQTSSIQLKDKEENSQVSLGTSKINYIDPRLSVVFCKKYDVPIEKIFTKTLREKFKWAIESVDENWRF
The experiment can be described thus: Inhibition of topoisomerase 1 in Saccharomyces cerevisiae JN394t-1 assessed as inhibition of growth at 50 ug/mL after 72 hrs.

In experiment [4] the target is T2, DNA topoisomerase 1 (Saccharomyces cerevisiae S288c). The experiment can be described thus: Inhibition of topoisomerase 1 in Saccharomyces cerevisiae JN394t2-5 assessed as inhibition of growth at 50 ug/mL after 72 hrs.
In experiment [5] the target is T1, DNA topoisomerase 2 (Saccharomyces cerevisiae S288c). Briefly: Inhibition of topoisomerase 2 in Saccharomyces cerevisiae JN394t-1 assessed as inhibition of growth at 50 ug/mL after 72 hrs.
The target in experiment [6] is T2, DNA topoisomerase 1 (Saccharomyces cerevisiae S288c). Briefly: Inhibition of topoisomerase 1 in Saccharomyces cerevisiae JN394 assessed as inhibition of growth at 50 ug/mL after 72 hrs.
Another experiment relates to Pichia kudriavzevii. Briefly: Antimicrobial activity against Candida krusei at 25 ug/mL. It counts as functional, organism-based.
In experiment [7] the test system is Aedes aegypti. Briefly: Mosquitocidal activity against Aedes aegypti fourth instar larvae assessed as mortality at 10 ug/mL after 48 hrs. It counts as functional.
A further experiment concerns Candida albicans. Briefly: Antimicrobial activity against Candida albicans at 1 ug/mL. Format: functional, organism-based.
The subject of the next experiment is Candida parapsilosis. Briefly: Antimicrobial activity against Candida parapsilosis at 25 ug/mL. It counts as functional, organism-based.
The target in experiment [8] is T1, DNA topoisomerase 2 (Saccharomyces cerevisiae S288c). The experiment can be described thus: Inhibition of topoisomerase 2 in Saccharomyces cerevisiae JN394t-1 assessed as inhibition of growth at 25 ug/mL after 72 hrs.
For experiment [9] the target is unchanged. The experiment can be described thus: Inhibition of topoisomerase 2 in Saccharomyces cerevisiae JN394 assessed as inhibition of growth at 25 ug/mL after 72 hrs.
Experiment [10] addresses T2, DNA topoisomerase 1 (Saccharomyces cerevisiae S288c). Briefly: Inhibition of topoisomerase 1 in Saccharomyces cerevisiae JN394t2-5 assessed as inhibition of growth at 25 ug/mL after 72 hrs.
Experiment [11] has the same target. Briefly: Inhibition of topoisomerase 1 in Saccharomyces cerevisiae JN394t-1 assessed as inhibition of growth at 25 ug/mL after 72 hrs.
Experiment [12] has the same target. Briefly: Inhibition of topoisomerase 1 in Saccharomyces cerevisiae JN394 assessed as inhibition of growth at 25 ug/mL after 72 hrs.
Experiment [13] has as its target T1, DNA topoisomerase 2 (Saccharomyces cerevisiae S288c). The experiment can be described thus: Inhibition of topoisomerase 2 in Saccharomyces cerevisiae JN394t2-5 assessed as inhibition of growth at 25 ug/mL after 72 hrs.
For experiment [14], the system named is Aedes aegypti. Briefly: Mosquitocidal activity against Aedes aegypti fourth instar larvae assessed as mortality at 50 ug/mL after 18 hrs. Format: functional, organism-based.
The test system of experiment [15] is Aedes aegypti. Briefly: Mosquitocidal activity against Aedes aegypti fourth instar larvae. Format: functional.

Regarding `COc1cc(/C=C/C(O)=C/C(=O)/C=C/c2ccc(O)cc2)ccc1O`, the result in [1], in experiment [2], in experiment [3], in experiment [4], in experiment [5] and in [6] was Active.
Turning to `C=C1CC[C@H]2C(C)(C)CCC[C@]2(C)[C@H]1C/C=C(\C=O)CC=O` [LABDADIENEDIAL], the result with Pichia kudriavzevii, in the experiment on Candida albicans and in the experiment on Candida parapsilosis was Active. The Activity in the experiment with Aedes aegypti [7] is reported as 100%.
Regarding `O=C(/C=C/c1ccc(O)cc1)CC(=O)/C=C/c1ccc(O)cc1`, the outcome in experiment [1], in experiment [8], in experiment [9], in [10], in experiment [2] and in [11] was Active. Moreover, the result in experiment [3], in [4], in experiment [12], in [5], in [6] and in [13] was Active.
On to `CC(C)=CC(=O)CC(C)c1ccc(C)cc1` (centres undefined), for which the result with Aedes aegypti [14] was Active. Also, the LD100 in the experiment with Aedes aegypti [15] is 50 µg/mL.
